From patent US20160016951A1 (Merck Patent GmbH, priority 2014, published 2016)

Molecular target: T1, CDK8 (CDK8/CycC) (Homo sapiens, UniProt P49336)
T1 construct: purchased Invitrogen PV4402
Assay: FRET based Lanthascreen binding competition assay
Conditions: 5 nM CDK8/CycC, 10 nM Alexa647-Tracer, 1% DMSO, 60 min at RT; read-out: IC50 CDK8 binding
Outline: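 CDK8 co-expressed with CycC and labelled through biotinylated anti-His antibody and streptavidin-Eu was preincubated with compound for 20 min at RT. An Alexa647 ATP-competitive probe was then added for 60 min at RT in the dark. Probe displacement was read as loss of TR-FRET (excitation 340 nm, emission 650 nm).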

T1 sequence (P49336 whole entry): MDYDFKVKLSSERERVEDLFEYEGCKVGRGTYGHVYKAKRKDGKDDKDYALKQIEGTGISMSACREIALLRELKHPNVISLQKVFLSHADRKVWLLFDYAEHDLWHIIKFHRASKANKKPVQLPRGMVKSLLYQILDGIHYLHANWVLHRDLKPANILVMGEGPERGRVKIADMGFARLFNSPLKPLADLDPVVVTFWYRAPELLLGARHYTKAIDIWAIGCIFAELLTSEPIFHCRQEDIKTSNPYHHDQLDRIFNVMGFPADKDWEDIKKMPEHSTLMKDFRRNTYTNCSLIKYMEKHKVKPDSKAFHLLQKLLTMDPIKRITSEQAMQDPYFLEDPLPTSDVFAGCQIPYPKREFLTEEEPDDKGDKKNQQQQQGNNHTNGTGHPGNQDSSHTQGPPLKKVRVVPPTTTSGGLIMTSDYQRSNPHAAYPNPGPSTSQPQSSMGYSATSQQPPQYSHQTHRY
T1 sequence (P24863 whole entry partner): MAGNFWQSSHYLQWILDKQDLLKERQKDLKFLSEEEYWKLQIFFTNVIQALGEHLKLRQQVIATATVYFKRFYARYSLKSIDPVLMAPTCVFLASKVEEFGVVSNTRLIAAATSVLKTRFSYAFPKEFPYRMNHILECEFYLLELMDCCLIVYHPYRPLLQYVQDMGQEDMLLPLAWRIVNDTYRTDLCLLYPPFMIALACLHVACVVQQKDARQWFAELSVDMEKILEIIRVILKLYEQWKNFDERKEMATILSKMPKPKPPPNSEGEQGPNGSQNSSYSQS

IC50	Compound
10 to 100 nM	COC1CN(C(=O)c2ccc3c(N)ncc(-c4ccc5c(cnn5C)c4)c3n2)C1 [Compound 140, (5-amino-8-(1-methyl-1H-indazol-5-yl)-1,6-naphthyridin-2-yl)(3-methoxyazetidin-1-yl)methanone]
101 to 500 nM	Cn1cc(-c2ccc(-c3cncc4ccc(C(=O)N5CCN(C(=O)OC(C)(C)C)CC5)cc34)cc2)cn1 [Compound 124, tert-butyl 4-(4-(4-(1-methyl-1H-pyrazol-4-yl)phenyl)isoquinoline-6-carbonyl)piperazine-1-carboxylate]
10 to 100 nM	Cn1cc(-c2ccc(-c3cncc4ccc(C#N)cc34)cc2)cn1 [Compound 118, 4-(4-(1-methyl-1H-pyrazol-4-yl)phenyl)isoquinoline-6-carbonitrile]
10 to 100 nM	Cn1cc(-c2ccc(-c3cncc4ccc(C(=O)NCc5ccc(C(F)(F)F)cc5)nc34)cc2)cn1 [Compound 87, 8-(4-(1-methyl-1H-pyrazol-4-yl)phenyl)-N-(4-(trifluoromethyl)benzyl)-1,6-naphthyridine-2-carboxamide]
10 to 100 nM	Cn1cc(-c2ccc(-c3cncc4ccc(N5CCNC(=O)C5)cc34)cc2)cn1 [Compound 116, 4-{4-[4-(1-Methyl-1H-pyrazol-4-yl)-phenyl]-isoquinolin-6-yl}-piperazin-2-one]
< 10 nM	Cn1cc(-c2ccc(-c3cncc4ccc(C(=O)N5CCNCC5)cc34)cc2)cn1 [Compound 102, (4-(4-(1-methyl-1H-pyrazol-4-yl)phenyl)isoquinolin-6-yl)(piperazin-1-yl)methanone]
101 to 500 nM	CN1C(=O)CCc2cc(-c3cnc(N)c4ccc(C(=O)N5CC(F)(F)C5)cc34)ccc21 [Compound 172, 6-[1-Amino-6-(3,3-difluoro-azetidine-1-carbonyl)-isoquinolin-4-yl]-1-methyl-3,4-dihydro-1H-quinolin-2-one]
101 to 500 nM	CN(C)C(=O)c1ccc2c(N)ncc(-c3ccc4c(c3)CS(=O)(=O)N4)c2n1 [Compound 59, 5-amino-8-(2,2-dioxido-1,3-dihydrobenzo[c]isothiazol-5-yl)-N,N-dimethyl-1,6-naphthyridine-2-carboxamide]
10 to 100 nM	CN1c2ccc(-c3cncc4ccc(-c5ncco5)cc34)cc2CS1(=O)=O [Compound 107, 1-methyl-5-(6-(oxazol-2-yl)isoquinolin-4-yl)-1,3-dihydrobenzo[c]isothiazole 2,2-dioxide]
10 to 100 nM	CNC(=O)c1ccc2cncc(-c3ccc(-c4cnn(C)c4)cc3C)c2n1 [Compound 43, N-methyl-8-(2-methyl-4-(1-methyl-1H-pyrazol-4-yl)phenyl)-1,6-naphthyridine-2-carboxamide]
< 10 nM	CC(C)(O)Cn1cc(-c2ccc(-c3cncc4ccc(C(N)=O)cc34)cc2)cn1 [Compound 97, 4-(4-(1-(2-hydroxy-2-methylpropyl)-1H-pyrazol-4-yl)phenyl)isoquinoline-6-carboxamide]
10 to 100 nM	COC1CN(C(=O)c2ccc3cncc(-c4ccc5c(c4)CC(=O)N5C)c3c2)C1 [Compound 159, 5-[6-(3-Methoxy-azetidine-1-carbonyl)-isoquinolin-4-yl]-1-methyl-1,3-dihydro-indol-2-one]
< 10 nM	O=C1Cc2ccc(-c3cncc4ccc(C(=O)N5CCC5)cc34)cc2N1 [Compound 145, 6-(6-(azetidine-1-carbonyl)isoquinolin-4-yl)indolin-2-one]
101 to 500 nM	Cn1cc(-c2ccc(-c3c(Cl)ncc4ccc(C(N)=O)nc34)cc2)cn1 [Compound 66, 7-Chloro-8-(4-(1-methyl-1H-pyrazol-4-yl)phenyl)-1,6-naphthyridine-2-carboxamide]
10 to 100 nM	Cn1cc(-c2ccc(-c3cncc4ccc(-c5nnnn5C)cc34)cc2)cn1 [Compound 123, 4-(4-(1-methyl-1H-pyrazol-4-yl)phenyl)-6-(1-methyl-1H-tetrazol-5-yl)isoquinoline]
101 to 500 nM	Cn1cc(-c2ccc(-c3cncc4ccc(C(=O)N5CCC[C@H]5c5ccc(Cl)cc5)nc34)cc2)cn1 [Compound 67, (S)-(2-(4-chlorophenyl)pyrrolidin-1-yl)(8-(4-(1-methyl-1H-pyrazol-4-yl)phenyl)-1,6-naphthyridin-2-yl)methanone]
101 to 500 nM	Cc1cc(C(N)=O)nc2c(-c3ccc(-c4cnn(C)c4)cc3)cncc12 [Compound 64, 4-Methyl-8-(4-(1-methyl-1H-pyrazol-4-yl)phenyl)-1,6-naphthyridine-2-carboxamide]
< 10 nM	Cn1cc(-c2ccc(-c3cncc4ccc(NS(=O)(=O)N5CCC5)cc34)cc2)cn1 [Compound 169, Azetidine-1-sulfonic acid {4-[4-(1-methyl-1H-pyrazol-4-yl)-phenyl]-isoquinolin-6-yl}-amide]
< 10 nM	COC1CN(C(=O)c2ccc3cncc(-c4ccc5nn(CC(C)(C)O)cc5c4)c3n2)C1 [Compound 33, (8-(2-(2-hydroxy-2-methylpropyl)-2H-indazol-5-yl)-1,6-naphthyridin-2-yl)(3-methoxyazetidin-1-yl)methanone]
< 10 nM	COC1CN(C(=O)c2ccc3cncc(-c4ccc5c(c4)N(C)C(=O)C5)c3c2)C1 [Compound 165, 6-[6-(3-Methoxy-azetidine-1-carbonyl)-isoquinolin-4-yl]-1-methyl-1,3-dihydro-indol-2-one]
10 to 100 nM	CN(c1ccc2cncc(-c3ccc(-c4cnn(C)c4)cc3)c2c1)S(C)(=O)=O [Compound 139, N-methyl-N-(4-(4-(1-methyl-1H-pyrazol-4-yl)phenyl)isoquinolin-6-yl)methanesulfonamide]
< 10 nM	O=C(c1ccc2cnccc2n1)N1CCC[C@H]1c1ccc(Cl)cc1 [Compound 37, (S)-(2-(4-chlorophenyl)pyrrolidin-1-yl)(1,6-naphthyridin-2-yl)methanone]

More lines, now with the values behind:

Compound	IC50
CC(C)S(=O)(=O)Nc1ccc2cncc(-c3ccc(-c4cnn(C)c4)cc3)c2c1 [Compound 157, Propane-2-sulfonic acid {4-[4-(1-methyl-1H-pyrazol-4-yl)-phenyl]-isoquinolin-6-yl}-amide]	< 10 nM
COC1CN(C(=O)c2ccc3c(N)ncc(-c4ccc(-c5ccn(C)n5)cc4)c3n2)C1 [Compound 160, (5-amino-8-(4-(1-methyl-1H-pyrazol-3-yl)phenyl)-1,6-naphthyridin-2-yl)(3-methoxyazetidin-1-yl)methanone]	101 to 500 nM
O=C(c1ccc2cncc(Br)c2n1)N1CCC[C@H]1c1ccc(Cl)cc1 [Compound 34, (S)-(8-bromo-1,6-naphthyridin-2-yl)(2-(4-chlorophenyl)pyrrolidin-1-yl)methanone]	< 10 nM
COC1CN(C(=O)c2ccc3cncc(-c4ccc5c(cnn5CC(C)(C)O)c4)c3n2)C1 [Compound 52, (8-(1-(2-hydroxy-2-methylpropyl)-1H-indazol-5-yl)-1,6-naphthyridin-2-yl)(3-methoxyazetidin-1-yl)methanone]	10 to 100 nM
C[C@H](NC(=O)c1ccc2cncc(Br)c2n1)c1ccccc1 [Compound 70, (S)-8-bromo-N-(1-phenylethyl)-1,6-naphthyridine-2-carboxamide]	101 to 500 nM
COC1CN(C(=O)c2ccc3cncc(-c4ccc(-c5cnn(CC(C)(C)O)c5)cc4)c3n2)C1 [Compound 31, (8-(4-(1-(2-hydroxy-2-methylpropyl)-1H-pyrazol-4-yl)phenyl)-1,6-naphthyridin-2-yl)(3-methoxyazetidin-1-yl)methanone]	< 10 nM
Cc1cncc2ccc(C(=O)N[C@@H](C)c3ccccc3)nc12 [Compound 62, (S)-8-methyl-N-(1-phenylethyl)-1,6-naphthyridine-2-carboxamide]	101 to 500 nM
CN(CCO)C(=O)c1ccc2cncc(-c3ccc4c(c3)CS(=O)(=O)N4)c2n1 [Compound 45, 8-(2,2-Dioxo-2,3-dihydro-1H-benzo[c]isothiazol-5-yl)-[1,6]naphthyridine-2-carboxylic acid (2-hydroxy-ethyl)-methyl-amide]	10 to 100 nM
COCCNC(=O)c1ccc2cncc(-c3ccc(-c4cnn(C)c4)cc3)c2n1 [Compound 74, N-(2-Methoxyethyl)-8-(4-(1-methyl-1H-pyrazol-4-yl)phenyl)-1,6-naphthyridine-2-carboxamide]	< 10 nM
COC1CN(C(=O)c2ccc3cncc(-c4ccc5c(cnn5C)c4)c3n2)C1 [Compound 22, (3-methoxyazetidin-1-yl)(8-(1-methyl-1H-indazol-5-yl)-1,6-naphthyridin-2-yl)methanone]	< 10 nM
Cn1cc(-c2ccc(-c3cncc4ccc(N5CCC(=O)C5)cc34)cc2)cn1 [Compound 115, 1-{4-[4-(1-Methyl-1H-pyrazol-4-yl)-phenyl]-isoquinolin-6-yl}-pyrrolidin-3-one]	10 to 100 nM
Cc1cncc2ccc(C(=O)N[C@H](C)c3ccccc3)nc12 [Compound 36, (R)-8-methyl-N-(1-phenylethyl)-1,6-naphthyridine-2-carboxamide]	< 10 nM
CNC(=O)c1nc2c(-c3ccc4c(c3)CS(=O)(=O)N4C)cncc2cc1C [Compound 12, 3-Methyl-8-(1-methyl-2,2-dioxo-2,3-dihydro-1H-benzo[c]isothiazol-5-yl)-[1,6]naphthyridine-2-carboxylic acid methylamide]	< 10 nM
Cc1cncc2ccc(C(=O)N3CCC[C@H]3c3ccc(Br)cc3)nc12 [Compound 92, (S)-(2-(4-bromophenyl)pyrrolidin-1-yl)(8-methyl-1,6-naphthyridin-2-yl)methanone]	< 10 nM
Cn1cc(-c2ccc(-c3cncc4ccc(S)nc34)cc2)cn1 [Compound 77, 8-(4-(1-methyl-1H-pyrazol-4-yl)phenyl)-1,6-naphthyridine-2-thiol]	10 to 100 nM
Cn1cc(-c2ccc(-c3cncc4ccc(C(=O)N5CCC(F)(F)CC5)nc34)cc2)cn1 [Compound 35, (4,4-difluoropiperidin-1-yl)(8-(4-(1-methyl-1H-pyrazol-4-yl)phenyl)-1,6-naphthyridin-2-yl)methanone]	< 10 nM
